Measured values: the kinase profiling compilation of Christmann-Franck et al. (2016)
Where “and” joins values, the source holds several entries; their conditions need not be identical. Equal entries are not always repeated.

Columns and labels:
Assay in all cases: radiometric filter-binding kinase assay, Kinase HotSpot
Conditions in all cases: compound 0.5 µM; ATP 10 µM
PAK6 (human) = PAK6 (human) (UniProt Q9NQU5)
CSNK1G2 (human) = CSNK1G2 (human) (UniProt P78368)
TBK1 (human) = TBK1 (human) (UniProt Q9UHD2)
NEK11 (human) = NEK11 (human) (UniProt Q8NG66)
NEK9 (human) = NEK9 (human) (UniProt Q8TD19)
CAMK1D (human) = CAMK1D (human) (UniProt Q8IU85)
LTK (human) = LTK (human) (UniProt P29376)
CSNK2A1 (human) = CSNK2A1 (human) (UniProt P68400)
GRK6 (human) = GRK6 (human) (UniProt P43250)
EPHA2 (human) = EPHA2 (human) (UniProt P29317)
TGFBR1 (human) = TGFBR1 (human) (UniProt P36897)
MST1R (human) = MST1R (human) (UniProt Q04912)
PRKG2 (human) = PRKG2 (human) (UniProt Q13237)
[1] = molecular target: TYK2 JH1 catalytic (human) (UniProt P29597)
SLK (human) = SLK (human) (UniProt Q9H2G2)
PIM3 (human) = PIM3 (human) (UniProt Q86V86)
ULK2 (human) = ULK2 (human) (UniProt Q8IYT8)
TAOK3 (human) = TAOK3 (human) (UniProt Q9H2K8)
DYRK4 (human) = DYRK4 (human) (UniProt Q9NR20)
PRKCA (human) = PRKCA (human) (UniProt P17252)
SYK (human) = SYK (human) (UniProt P43405)
MAPK14 (human) = MAPK14 (human) (UniProt Q16539)
SGK2 (human) = SGK2 (human) (UniProt Q9HBY8)
CAMKK2 (human) = CAMKK2 (human) (UniProt Q96RR4)
ROS1 (human) = ROS1 (human) (UniProt P08922)
PDGFRB (human) = PDGFRB (human) (UniProt P09619)
NEK1 (human) = NEK1 (human) (UniProt Q96PY6)
CSNK1D (human) = CSNK1D (human) (UniProt P48730)
SRMS (human) = SRMS (human) (UniProt Q9H3Y6)
MAPK11 (human) = MAPK11 (human) (UniProt Q15759)
FGFR3 (human) = FGFR3 (human) (UniProt P22607)
HIPK1 (human) = HIPK1 (human) (UniProt Q86Z02)
LYN (human) = LYN (human) (UniProt P07948)
RPS6KA6 KD1 KD2 (human) = RPS6KA6 KD1 KD2 (human) (UniProt Q9UK32)
PRKCH (human) = PRKCH (human) (UniProt P24723)
ROCK2 (human) = ROCK2 (human) (UniProt O75116)
CAMKK1 (human) = CAMKK1 (human) (UniProt Q8N5S9)
PLK1 (human) = PLK1 (human) (UniProt P53350)
PAK3 (human) = PAK3 (human) (UniProt O75914)
RPS6KB1 (human) = RPS6KB1 (human) (UniProt P23443)
LIMK1 (human) = LIMK1 (human) (UniProt P53667)
CAMK1G (human) = CAMK1G (human) (UniProt Q96NX5)

Chain of ROCK2 (human) (O75116 whole entry, looked up): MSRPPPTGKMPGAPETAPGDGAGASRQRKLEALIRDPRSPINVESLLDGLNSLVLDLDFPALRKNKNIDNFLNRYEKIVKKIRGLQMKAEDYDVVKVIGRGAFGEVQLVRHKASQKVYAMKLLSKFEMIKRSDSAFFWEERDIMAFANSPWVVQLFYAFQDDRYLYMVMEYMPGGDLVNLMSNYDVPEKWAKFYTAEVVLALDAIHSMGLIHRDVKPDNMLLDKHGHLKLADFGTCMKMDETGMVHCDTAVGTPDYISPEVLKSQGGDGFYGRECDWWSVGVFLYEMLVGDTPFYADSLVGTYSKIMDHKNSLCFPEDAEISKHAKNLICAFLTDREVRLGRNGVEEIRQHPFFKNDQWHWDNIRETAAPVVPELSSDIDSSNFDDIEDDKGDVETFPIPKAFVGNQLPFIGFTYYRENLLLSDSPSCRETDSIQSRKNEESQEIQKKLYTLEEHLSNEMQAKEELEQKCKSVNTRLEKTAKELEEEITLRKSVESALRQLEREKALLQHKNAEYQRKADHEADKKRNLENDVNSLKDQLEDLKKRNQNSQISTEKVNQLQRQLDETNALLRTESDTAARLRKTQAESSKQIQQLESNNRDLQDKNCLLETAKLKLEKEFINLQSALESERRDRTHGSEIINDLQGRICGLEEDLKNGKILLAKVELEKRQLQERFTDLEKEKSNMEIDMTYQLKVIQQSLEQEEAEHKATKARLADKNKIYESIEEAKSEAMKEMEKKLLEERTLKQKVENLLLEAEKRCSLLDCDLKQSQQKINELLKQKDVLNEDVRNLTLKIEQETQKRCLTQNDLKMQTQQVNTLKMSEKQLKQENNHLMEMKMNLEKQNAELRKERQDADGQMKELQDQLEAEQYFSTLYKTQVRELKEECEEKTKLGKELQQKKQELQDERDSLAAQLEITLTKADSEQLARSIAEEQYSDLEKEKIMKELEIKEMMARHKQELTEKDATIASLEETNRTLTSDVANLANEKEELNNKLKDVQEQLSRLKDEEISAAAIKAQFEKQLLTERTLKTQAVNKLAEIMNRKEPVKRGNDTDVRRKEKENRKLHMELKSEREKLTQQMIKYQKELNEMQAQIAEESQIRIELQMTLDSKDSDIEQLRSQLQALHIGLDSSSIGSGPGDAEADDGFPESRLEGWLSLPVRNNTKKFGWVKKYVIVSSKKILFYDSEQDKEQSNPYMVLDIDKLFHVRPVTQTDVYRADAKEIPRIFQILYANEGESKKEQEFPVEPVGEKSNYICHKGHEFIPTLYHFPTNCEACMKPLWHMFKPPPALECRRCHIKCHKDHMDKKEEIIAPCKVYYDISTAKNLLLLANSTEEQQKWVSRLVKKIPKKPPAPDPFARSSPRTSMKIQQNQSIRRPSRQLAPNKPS
Chain of SRMS (human) (Q9H3Y6 whole entry, looked up): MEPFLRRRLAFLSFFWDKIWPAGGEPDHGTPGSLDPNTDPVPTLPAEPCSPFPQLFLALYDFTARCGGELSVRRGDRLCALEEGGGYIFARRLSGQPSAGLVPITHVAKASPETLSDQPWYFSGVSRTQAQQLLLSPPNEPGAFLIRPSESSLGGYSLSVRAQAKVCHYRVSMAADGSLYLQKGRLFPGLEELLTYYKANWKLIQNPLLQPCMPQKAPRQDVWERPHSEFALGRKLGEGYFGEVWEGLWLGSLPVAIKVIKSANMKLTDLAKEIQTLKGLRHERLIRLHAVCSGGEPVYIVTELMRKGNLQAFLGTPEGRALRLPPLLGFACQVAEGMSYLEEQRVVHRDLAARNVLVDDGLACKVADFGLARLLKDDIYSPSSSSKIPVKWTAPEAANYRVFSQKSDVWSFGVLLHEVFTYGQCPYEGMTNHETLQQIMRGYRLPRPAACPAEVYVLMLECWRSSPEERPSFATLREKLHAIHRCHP
Chain of EPHA2 (human) (P29317 whole entry, looked up): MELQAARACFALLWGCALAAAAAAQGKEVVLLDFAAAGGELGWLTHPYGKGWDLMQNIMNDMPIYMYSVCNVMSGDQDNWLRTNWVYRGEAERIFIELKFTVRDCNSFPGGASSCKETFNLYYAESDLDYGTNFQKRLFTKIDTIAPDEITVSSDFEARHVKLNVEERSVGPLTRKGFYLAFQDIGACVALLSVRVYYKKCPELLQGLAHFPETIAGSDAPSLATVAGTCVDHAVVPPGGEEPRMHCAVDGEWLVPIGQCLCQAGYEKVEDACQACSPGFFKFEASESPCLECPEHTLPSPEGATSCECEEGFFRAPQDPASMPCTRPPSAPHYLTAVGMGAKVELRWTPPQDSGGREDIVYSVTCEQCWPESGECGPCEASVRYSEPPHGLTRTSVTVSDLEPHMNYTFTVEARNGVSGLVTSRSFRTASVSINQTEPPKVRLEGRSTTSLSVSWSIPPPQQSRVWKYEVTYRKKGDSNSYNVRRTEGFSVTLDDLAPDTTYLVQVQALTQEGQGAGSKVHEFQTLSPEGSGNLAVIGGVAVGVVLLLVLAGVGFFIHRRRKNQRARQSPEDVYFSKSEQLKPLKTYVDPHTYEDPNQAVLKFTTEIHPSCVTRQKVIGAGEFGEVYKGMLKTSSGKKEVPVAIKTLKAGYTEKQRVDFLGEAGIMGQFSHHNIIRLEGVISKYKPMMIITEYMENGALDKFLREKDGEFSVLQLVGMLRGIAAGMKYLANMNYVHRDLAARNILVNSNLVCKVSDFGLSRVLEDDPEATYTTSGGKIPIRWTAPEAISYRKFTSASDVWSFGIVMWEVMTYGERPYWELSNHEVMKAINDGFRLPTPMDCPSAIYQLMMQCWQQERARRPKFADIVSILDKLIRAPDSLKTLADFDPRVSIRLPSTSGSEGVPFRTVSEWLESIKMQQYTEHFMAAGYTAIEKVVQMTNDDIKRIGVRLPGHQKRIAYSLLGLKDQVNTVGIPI
Chain of TGFBR1 (human) (P36897 whole entry, looked up): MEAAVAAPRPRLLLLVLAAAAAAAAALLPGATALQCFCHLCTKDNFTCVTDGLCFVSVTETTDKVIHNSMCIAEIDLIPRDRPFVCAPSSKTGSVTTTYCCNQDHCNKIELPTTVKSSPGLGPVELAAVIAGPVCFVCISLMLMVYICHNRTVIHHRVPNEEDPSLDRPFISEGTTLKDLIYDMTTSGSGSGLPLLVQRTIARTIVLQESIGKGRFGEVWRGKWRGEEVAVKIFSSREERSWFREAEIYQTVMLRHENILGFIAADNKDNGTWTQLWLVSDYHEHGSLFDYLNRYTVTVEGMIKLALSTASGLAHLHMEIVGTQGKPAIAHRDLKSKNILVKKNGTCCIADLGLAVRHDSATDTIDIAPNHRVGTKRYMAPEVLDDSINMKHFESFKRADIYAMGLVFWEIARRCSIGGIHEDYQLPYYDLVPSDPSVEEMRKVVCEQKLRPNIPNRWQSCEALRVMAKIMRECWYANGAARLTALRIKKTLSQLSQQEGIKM
Chain of MST1R (human) (Q04912 whole entry, looked up): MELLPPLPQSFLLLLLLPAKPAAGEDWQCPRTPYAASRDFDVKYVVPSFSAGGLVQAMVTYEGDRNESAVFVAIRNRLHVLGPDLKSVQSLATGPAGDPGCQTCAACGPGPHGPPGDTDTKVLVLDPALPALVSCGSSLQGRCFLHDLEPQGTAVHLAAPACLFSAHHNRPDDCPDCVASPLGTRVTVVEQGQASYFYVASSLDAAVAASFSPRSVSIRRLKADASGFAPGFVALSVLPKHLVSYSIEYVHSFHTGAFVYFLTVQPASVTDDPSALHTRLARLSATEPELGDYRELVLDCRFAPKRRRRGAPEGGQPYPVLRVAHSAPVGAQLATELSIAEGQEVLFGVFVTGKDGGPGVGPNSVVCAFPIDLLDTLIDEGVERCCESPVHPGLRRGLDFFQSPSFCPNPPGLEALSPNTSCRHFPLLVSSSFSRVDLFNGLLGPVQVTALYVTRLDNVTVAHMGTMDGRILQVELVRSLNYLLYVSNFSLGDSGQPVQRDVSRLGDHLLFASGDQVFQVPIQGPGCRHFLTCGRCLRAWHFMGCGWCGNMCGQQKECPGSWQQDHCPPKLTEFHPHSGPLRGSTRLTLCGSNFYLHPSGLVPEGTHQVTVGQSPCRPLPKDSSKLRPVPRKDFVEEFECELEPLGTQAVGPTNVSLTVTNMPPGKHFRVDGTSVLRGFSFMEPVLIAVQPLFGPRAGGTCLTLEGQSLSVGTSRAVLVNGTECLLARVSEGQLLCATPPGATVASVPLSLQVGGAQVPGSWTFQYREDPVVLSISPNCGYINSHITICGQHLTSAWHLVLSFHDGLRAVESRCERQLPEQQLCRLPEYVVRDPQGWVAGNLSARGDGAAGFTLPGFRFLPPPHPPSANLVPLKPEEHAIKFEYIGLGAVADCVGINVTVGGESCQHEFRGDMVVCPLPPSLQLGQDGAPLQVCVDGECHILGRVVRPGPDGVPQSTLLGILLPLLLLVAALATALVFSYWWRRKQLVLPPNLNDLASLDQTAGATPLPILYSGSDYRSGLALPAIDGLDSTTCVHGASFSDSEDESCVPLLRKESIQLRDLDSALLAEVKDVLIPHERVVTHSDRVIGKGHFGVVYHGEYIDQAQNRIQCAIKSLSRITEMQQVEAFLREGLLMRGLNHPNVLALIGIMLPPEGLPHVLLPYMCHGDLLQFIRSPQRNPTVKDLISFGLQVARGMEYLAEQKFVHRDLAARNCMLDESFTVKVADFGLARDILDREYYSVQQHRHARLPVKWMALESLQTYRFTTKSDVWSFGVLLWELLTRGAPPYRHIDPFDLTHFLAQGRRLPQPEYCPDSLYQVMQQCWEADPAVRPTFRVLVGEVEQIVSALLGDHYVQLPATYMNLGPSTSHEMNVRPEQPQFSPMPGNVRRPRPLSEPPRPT

SMILES: Cc1ccc(Nc2nccc(N(C)c3ccc4c(C)n(C)nc4c3)n2)cc1S(N)(=O)=O
- residual activity (PAK6 (human)): 105%
- residual activity (CSNK1G2 (human)): 96.9%
- residual activity (TBK1 (human)): 99.5%
- residual activity (NEK11 (human)): 94.8%
- residual activity (NEK9 (human)): 95.8%
- residual activity (CAMK1D (human)): 91.5%
- residual activity (LTK (human)): 80.2%
- residual activity (CSNK2A1 (human)): 114%
- residual activity (GRK6 (human)): 102%
- residual activity (EPHA2 (human)): 85.7%
- residual activity (TGFBR1 (human)): 103%
- residual activity (MST1R (human)): 97.8%
- residual activity (PRKG2 (human)): 96%
- residual activity [1]: 94%
- residual activity (SLK (human)): 84.9%
- residual activity (PIM3 (human)): 81.6%
- residual activity (ULK2 (human)): 102%
- residual activity (TAOK3 (human)): 55.5%
- residual activity (DYRK4 (human)): 106%
- residual activity (PRKCA (human)): 94.4%
- residual activity (SYK (human)): 101%
- residual activity (MAPK14 (human)): 91.2%
- residual activity (SGK2 (human)): 160%
- residual activity (CAMKK2 (human)): 98.5%
- residual activity (ROS1 (human)): 17%
- residual activity (PDGFRB (human)): 40.4%
- residual activity (NEK1 (human)): 105%
- residual activity (CSNK1D (human)): 95.4%
- residual activity (SRMS (human)): 115%
- residual activity (MAPK11 (human)): 93.3%
- residual activity (FGFR3 (human)): 39.3%
- residual activity (HIPK1 (human)): 97.6%
- residual activity (LYN (human)): 52.1% and 58.9%
- residual activity (RPS6KA6 KD1 KD2 (human)): 96.8%
- residual activity (PRKCH (human)): 110%
- residual activity (ROCK2 (human)): 91.1%
- residual activity (CAMKK1 (human)): 72%
- residual activity (PLK1 (human)): 99.5%
- residual activity (PAK3 (human)): 90.6%
- residual activity (RPS6KB1 (human)): 96%

SMILES: CCOC(=O)c1c(C)[nH]c(/C=C2\C(=O)Nc3ccccc32)c1C
- residual activity (PAK6 (human)): 81.4%
- residual activity (CSNK1G2 (human)): 84.8%
- residual activity (TBK1 (human)): 70.5%
- residual activity (NEK11 (human)): 96.6%
- residual activity (NEK9 (human)): 80.8%
- residual activity (CAMK1D (human)): 93.1%
- residual activity (LTK (human)): 66.9%
- residual activity (CSNK2A1 (human)): 114%
- residual activity (GRK6 (human)): 90.8%
- residual activity (EPHA2 (human)): 105%
- residual activity (TGFBR1 (human)): 99.7%
- residual activity (MST1R (human)): 87.5%
- residual activity (PRKG2 (human)): 78.9%
- residual activity [1]: 89.9%
- residual activity (SLK (human)): 89.8%
- residual activity (PIM3 (human)): 75.1%
- residual activity (ULK2 (human)): 105%
- residual activity (TAOK3 (human)): 87.6%
- residual activity (DYRK4 (human)): 99.6%
- residual activity (LIMK1 (human)): 81.3%
- residual activity (SYK (human)): 89.3%
- residual activity (MAPK14 (human)): 134%
- residual activity (SGK2 (human)): 93.7%
- residual activity (CAMKK2 (human)): 90.8%
- residual activity (ROS1 (human)): 99.1%
- residual activity (PDGFRB (human)): 69.1%
- residual activity (NEK1 (human)): 92.5%
- residual activity (CSNK1D (human)): 96.4%
- residual activity (SRMS (human)): 104%
- residual activity (CAMK1G (human)): 98.2%
- residual activity (MAPK11 (human)): 97.5%
- residual activity (FGFR3 (human)): 80.4%
- residual activity (HIPK1 (human)): 97.3%
- residual activity (LYN (human)): 84.1% and 98.4%
- residual activity (RPS6KA6 KD1 KD2 (human)): 87.6%
- residual activity (PRKCH (human)): 94%
- residual activity (ROCK2 (human)): 94.3%
- residual activity (CAMKK1 (human)): 95.3%
- residual activity (PLK1 (human)): 107%
- residual activity (PAK3 (human)): 99.1%
- residual activity (RPS6KB1 (human)): 85.7%

SMILES: Oc1cccc(-c2nc(N3CCOCC3)c3oc4ncccc4c3n2)c1
- residual activity (PAK6 (human)): 105%
- residual activity (CSNK1G2 (human)): 88.1%
- residual activity (TBK1 (human)): 93%
- residual activity (NEK11 (human)): 109%
- residual activity (NEK9 (human)): 99.3%
- residual activity (CAMK1D (human)): 121%
- residual activity (LTK (human)): 97.6%
- residual activity (CSNK2A1 (human)): 94.7%
- residual activity (GRK6 (human)): 98.2%
- residual activity (EPHA2 (human)): 99.9%
- residual activity (TGFBR1 (human)): 95%
- residual activity (MST1R (human)): 94.3%
- residual activity (PRKG2 (human)): 89.2%
- residual activity [1]: 73.6%
- residual activity (SLK (human)): 101%
- residual activity (PIM3 (human)): 104%
- residual activity (ULK2 (human)): 106%
- residual activity (TAOK3 (human)): 86.8%
- residual activity (DYRK4 (human)): 96.6%
- residual activity (LIMK1 (human)): 93.7%
- residual activity (PRKCA (human)): 103%
- residual activity (SYK (human)): 94.2%
- residual activity (SGK2 (human)): 96.7%
- residual activity (CAMKK2 (human)): 79.8%
- residual activity (ROS1 (human)): 93.1%
- residual activity (PDGFRB (human)): 99.2%
- residual activity (NEK1 (human)): 77.8%
- residual activity (CSNK1D (human)): 91.3%
- residual activity (SRMS (human)): 96.2%
- residual activity (CAMK1G (human)): 99.2%
- residual activity (MAPK11 (human)): 103%
- residual activity (FGFR3 (human)): 101%
- residual activity (HIPK1 (human)): 101%
- residual activity (LYN (human)): 102% and 98.3%
- residual activity (RPS6KA6 KD1 KD2 (human)): 98.2%
- residual activity (PRKCH (human)): 89.8%
- residual activity (ROCK2 (human)): 94.5%
- residual activity (CAMKK1 (human)): 84.6%
- residual activity (PLK1 (human)): 97.9%
- residual activity (PAK3 (human)): 97.5%
- residual activity (RPS6KB1 (human)): 106%
